Measured values from paper PMC11726634, “Probing the Histamine H1 Receptor Binding Site to Explore Ligand Binding Kinetics” (Journal of Medicinal Chemistry, 2024).
Counter-ions that a name gives are not always drawn. Like-named read-outs stand apart in the source and are kept apart here.

How the values were obtained:
[1] = molecular target: T1, human H1R (Homo sapiens, UniProt P35367); test: Competition association binding with [3H]-mepyramine (Motulsky and Mahan model); details: for KE (kinetic efficiency = RT/N heavy atoms): RT divided by number of heavy atoms; for pKD,calc: calculated from kon and koff of individual experiments
T1 construct: expressed in transfected cells; host or cells: HEK293T cells, transient transfection with pcDEF3, used as cell homogenate
T1 sequence (P35367 whole entry): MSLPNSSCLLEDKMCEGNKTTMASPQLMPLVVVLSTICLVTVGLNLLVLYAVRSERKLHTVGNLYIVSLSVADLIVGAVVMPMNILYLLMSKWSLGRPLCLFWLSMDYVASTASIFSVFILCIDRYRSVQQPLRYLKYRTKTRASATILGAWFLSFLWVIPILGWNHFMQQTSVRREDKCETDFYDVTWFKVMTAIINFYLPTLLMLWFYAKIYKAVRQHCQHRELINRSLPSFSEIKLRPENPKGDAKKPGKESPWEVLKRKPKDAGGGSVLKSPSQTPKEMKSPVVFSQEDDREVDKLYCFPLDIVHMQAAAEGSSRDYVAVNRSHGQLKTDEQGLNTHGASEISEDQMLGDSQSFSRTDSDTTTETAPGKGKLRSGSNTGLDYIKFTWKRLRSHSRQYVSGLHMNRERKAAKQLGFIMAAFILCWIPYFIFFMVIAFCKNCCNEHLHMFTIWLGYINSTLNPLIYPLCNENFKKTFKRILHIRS
Experimental: Binding in the presence of mianserin was assumed to be the baseline (i.e., t = 0 min). Binding over time was baseline corrected and then analyzed by nonlinear regression using the Motulsky and Mahan model[25] (eq 5). This model assumes that both the radioligand and the unlabeled ligand bind competitively to the same binding site according to a one-step binding mechanism.

[2] = molecular target: T1, human H1R; test: [3H]-mepyramine competition binding (radioligand displacement, 4 h) on HEK293T cell homogenates; details: for pKi: [3H]mepyramine displacement curves after 4 h incubation, HEK293T cell homogenate expressing H1R, 25 °C, mean and SEM, N ≥ 3
Experimental: Protein content of membrane homogenates was determined using a BCA protein assay. […] Membrane preparation, termination of the binding reaction and quantifying radioactivity as described here, were performed for all binding experiments.Total binding and nonspecific binding (i.e., in the presence of mianserin) was analyzed by nonlinear regression using eqs 1 (nonspecific binding) and 2 (total binding).
These values were converted to Ki values using the Cheng–Prusoff equation.[24]

[3] = competitive binding of [3H]mepyramine over time, unlabeled ligand at ±10 times Ki, 25 °C, mean and SEM, N ≥ 3
[4] = competitive binding of [3H]mepyramine over time, unlabeled ligand at ±10 times Ki, 25 °C, mean and SEM, N ≥ 3, read-out: koff (converted)
[5] = compared with fragment 1 (RT 2.0 min)

Compound	KE (kinetic efficiency = RT/N heavy atoms) [1]	pKD,calc ([1]; mean and SEM, N ≥ 3)	koff [1, 3] [s⁻¹]	kon [1, 3]	pKi [2]	koff [1, 4] [s⁻¹]	kon ([1]; read-out: kon (converted)) [M⁻¹ s⁻¹]	increase in RT relative to 1 [1, 5] [fold]	increase in RT relative to 1 [1] [fold]	decrease of association rate constant (kon) relative to 1 ([1]; compared with 1) [fold]	koff ([1]; read-out: koff (converted)) [s⁻¹]	lower binding affinity relative to 1 ([2]; compared with 1) [fold]	increase in RT compared to first-generation analog [1] [fold]
2-(3-Benzyl-2-((1-methylpiperidin-4-yl)oxy)phenyl)acetic Acid [3b]	0.48	7.4 ± 0.0	0.00138 ± 6.7e-05	2.08 ± 0.10 10^6· M^−1·min^−1	7.4 ± 0.1	–	–	–	–	–	–	–	–
CN1CCC(Oc2cc(C(=O)O)ccc2Cc2ccccc2)CC1 [2a, 4-Benzyl-3-((1-methylpiperidin-4-yl)oxy)benzoic Acid]	0.05	4.8 ± 0.1	–	–	<5	0.0167	1000	–	–	–	–	–	–
CN1CCC(Oc2cc(CC(=O)O)ccc2Cc2ccccc2)CC1 [2b, 2-(4-Benzyl-3-((1-methylpiperidin-4-yl)oxy)phenyl)acetic Acid]	0.24	6.8 ± 0.2	–	–	6.9 ± 0.1	0.00283	21700	–	–	–	–	–	–
CN1CCC(Oc2cc(/C=C/C(=O)O)ccc2Cc2ccccc2)CC1 [2c, (E)-3-(4-Benzyl-3-((1-methylpiperidin-4-yl)oxy)phenyl)acrylic Acid]	0.69	7.0 ± 0.0	–	–	6.5 ± 0.1	0.000917	10300	9	–	–	–	–	–
CN1CCC(Oc2cc(CO)ccc2Cc2ccccc2)CC1 [2d, (4-Benzyl-3-((1-methylpiperidin-4-yl)oxy)phenyl)methanol Hemifumarate]	0.17	8.6 ± 0.0	–	–	8.4 ± 0.1	–	1.63e+06	–	2	2	0.00417	–	–
COc1ccc(Cc2ccccc2)c(OC2CCN(C)CC2)c1 [2e, 4-(2-Benzyl-5-methoxyphenoxy)-1-methylpiperidine Fumarate]	0.09	8.1 ± 0.1	–	–	7.8 ± 0.1	–	1e+06	–	–	–	0.00833	–	–
CN1CCC(Oc2c(Cc3ccccc3)cccc2C(=O)O)CC1 [3a, 3-Benzyl-2-((1-methylpiperidin-4-yl)oxy)benzoic Acid]	0.18	6.3 ± 0.0	–	–	6.2 ± 0.1	0.004	8330	–	–	–	–	–	–
CN1CCC(Oc2c(/C=C/C(=O)O)cccc2Cc2ccccc2)CC1 [3c, (E)-3-(3-Benzyl-2-((1-methylpiperidin-4-yl)oxy)phenyl)acrylic Acid]	0.12	6.7 ± 0.0	–	–	6.6 ± 0.1	–	26700	–	–	–	–	–	–
CN1CCC(Oc2c(CO)cccc2Cc2ccccc2)CC1 [3d, (3-Benzyl-2-((1-methylpiperidin-4-yl)oxy)phenyl)methanol]	0.06	7.6 ± 0.1	–	–	7.4 ± 0.0	0.0122	450000	–	–	–	–	10	–
O=C(O)CCN1CCC(Oc2ccccc2Cc2ccccc2)CC1 [4a, 3-(4-(2-Benzylphenoxy)piperidin-1-yl)propanoic Acid Hydrochloride]	0.36	7.4 ± 0.0	–	–	7.5 ± 0.1	0.00183	48300	–	–	–	–	–	–
O=C(O)CCCN1CCC(Oc2ccccc2Cc2ccccc2)CC1 [4b, 4-(4-(2-Benzylphenoxy)piperidin-1-yl)butanoic Acid Hydrochloride]	0.38	7.5 ± 0.0	–	–	7.6 ± 0.1	0.00167	48300	–	–	–	–	–	–
O=C(O)CCCCN1CCC(Oc2ccccc2Cc2ccccc2)CC1 [4c, 5-(4-(2-Benzylphenoxy)piperidin-1-yl)pentanoic Acid Hydrochloride]	0.85	7.9 ± 0.1	–	–	7.8 ± 0.1	0.00075	53300	> 10	–	–	–	–	–
O=C(O)CCCCCN1CCC(Oc2ccccc2Cc2ccccc2)CC1 [4d, 6-(4-(2-Benzylphenoxy)piperidin-1-yl)hexanoic Acid Hydrochloride]	0.61	7.7 ± 0.1	–	–	7.8 ± 0.0	0.001	66700	–	–	–	–	–	–
O=C(O)CCCCCCN1CCC(Oc2ccccc2Cc2ccccc2)CC1 [4e, 7-(4-(2-Benzylphenoxy)piperidin-1-yl)heptanoic Acid Hydrochloride]	0.45	7.5 ± 0.0	–	–	7.7 ± 0.2	0.00127	41700	–	–	–	–	–	–
O=C(O)CCCCCCCN1CCC(Oc2ccccc2Cc2ccccc2)CC1 [4f, 8-(4-(2-Benzylphenoxy)piperidin-1-yl)octanoic Acid Hydrochloride]	0.50	7.5 ± 0.0	–	–	7.6 ± 0.1	0.00115	39500	–	–	–	–	–	–
CN(C)CC/C=C1/c2ccccc2COc2ccc(CC(=O)O)cc21 [Olopatadine, olopatadine, reference compound]	–	–	–	–	–	–	–	–	–	–	–	–	7
c1ccc(Cc2ccccc2OC2CCN(CCCCc3nnn[nH]3)CC2)cc1 [compound 27, 1-(4-(1H-Tetrazol-5-yl)butyl)-4-(2-benzylphenoxy)piperidine]	1.66	8.2 ± 0.02	–	–	8.1 ± 0.1	0.00035	61700	–	–	–	–	–	–
